Among the data in patent US10858356B2, “Pyrazolopyridine derivative having GLP-1 receptor agonist effect” (Chugai Seiyaku Kabushiki Kaisha, priority 2016, dated 2020) are EC50 values, retold here.

The target of this test is human GLP1R (Homo sapiens (Human), UniProt P43220). Put plainly: In vitro cAMP signal activation in human GLP1R stably-expressing cell line (hGLP1R-HEK293). The class given is cell-based. The following applies: cAMP concentration in hGLP1R-HEK293; 100% = 1 nM human GLP-1 (7-37). On the procedure: <Test Example 1> Measurement of In Vitro cAMP Signal Activation of a Compound in Human GLP1R
Chain of human GLP1R (P43220 24-463): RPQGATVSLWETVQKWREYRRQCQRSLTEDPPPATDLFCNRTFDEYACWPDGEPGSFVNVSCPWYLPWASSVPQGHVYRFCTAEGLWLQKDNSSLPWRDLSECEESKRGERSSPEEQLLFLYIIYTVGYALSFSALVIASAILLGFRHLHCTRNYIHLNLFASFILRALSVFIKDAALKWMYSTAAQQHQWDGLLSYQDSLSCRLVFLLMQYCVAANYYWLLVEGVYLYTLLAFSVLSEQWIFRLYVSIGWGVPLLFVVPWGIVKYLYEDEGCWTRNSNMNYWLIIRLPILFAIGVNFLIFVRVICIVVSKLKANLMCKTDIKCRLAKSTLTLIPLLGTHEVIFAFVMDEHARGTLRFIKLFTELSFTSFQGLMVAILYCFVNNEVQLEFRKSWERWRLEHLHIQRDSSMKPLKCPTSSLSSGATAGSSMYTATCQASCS
A human GLP1R stably-expressing cell line (hGLP1R-HEK293) was used in the experiment. The cells were cultured in a Dulbecco's modified Eagle's medium (DMEM) containing 10% fetal bovine serum (Sigma-Aldrich), 100 units/mL penicillin G and 100 μg/mL streptomycin sulfate (Gibco), and 500 μg/mL Geneticin (Gibco), under a moist atmosphere containing 5% CO2, at 37° C.
hGLP1R-HEK293 was seeded in 96 well plates at 2.0×10^4 cells per well and cultured over night. The medium for culturing the cells was changed to 50 μL of Medium A (DMEM, 20 mM HEPES, 0.05% BSA, 0.5 mM 3-isobutyl-1-methylxanthine) the next day, and the cells were incubated at 37° C. for 30 min. Then, 50 μL of Medium B (DMEM, 20 mM HEPES, 0.05% BSA, 0.5 mM 3-isobutyl-1-methylxanthine) containing GLP-1 or the compound was added, and the cells were incubated at 37° C. for an additional 30 min. Then, 100 μL of Assay lysis buffer (Applied Bioscience) was added, and the cells were incubated at 37° C. for 30 min. The cAMP concentration was quantified using cAMP HiRange kit (Cisbio Bioassays).
By setting the cAMP concentration when the human GLP-1 (7-37) was put into action at a concentration of 1 nM to 100%, the cAMP concentration of each well was converted to a reaction rate (%).
The term EC50 denotes the concentration needed to bring the measured effect to its halfway point. Turning to `CCS(=O)(=O)c1ccc(-n2ccn(-c3c4c(nn3-c3cc(C)c(F)c(C)c3)CCN(C(=O)c3cc5cc(C6CCOCC6)ccc5n3[C@@]3(c5noc(=O)[nH]5)CC3C)[C@H]4C)c2=O)cc1` (stereo in doubt) [Example 21, 3-[(1S,2S)-1-[2-[(4S)-3-[3-(4-ethylsulfonylphenyl)-2-oxoimidazol-1-yl]-2-(4-fluoro-3,5-dimethylphenyl)-4-methyl-6,7-dihydro-4H-pyrazolo[4,3-c]pyridine-5-carbonyl]-5-(oxan-4-yl)indol-1-yl]-2-methylcyclopropyl]-4H-1,2,4-oxadiazol-5-one], the EC50 was 1.6 nM.
The figure for `COCCn1c(=O)n(C)c2cc(-n3ccn(-c4c5c(nn4-c4cc(C)c(F)c(C)c4)CCN(C(=O)c4cc6cc(C7CCOC(C)(C)C7)ccc6n4[C@@]4(c6noc(=O)[nH]6)C[C@@H]4C)[C@H]5C)c3=O)ccc21` (stereo in doubt) [Example 33, 3-[(1S,2S)-1-[5-[(4S)-2,2-dimethyloxan-4-yl]-2-[(4S)-2-(4-fluoro-3,5-dimethylphenyl)-3-[3-[1-(2-methoxyethyl)-3-methyl-2-oxobenzoimidazol-5-yl]-2-oxoimidazol-1-yl]-4-methyl-6,7-dihydro-4H-pyrazolo[4,3-c]pyridine-5-carbonyl]indol-1-yl]-2-methylcyclopropyl]-4H-1,2,4-oxadiazol-5-one] is 1.6 nM; for `Cc1cc(-n2nc3c(c2-n2ccn(-c4ccc5[nH]ncc5c4)c2=O)[C@H](C)N(C(=O)c2cc4cc(C5CCOC(C)(C)C5)ccc4n2[C@@]2(c4noc(=O)[nH]4)C[C@@H]2C)CC3)cc(C)c1F` (stereo in doubt) [Example 34, 3-[(1S,2S)-1-[5-[(4S)-2,2-dimethyloxan-4-yl]-2-[(4S)-2-(4-fluoro-3,5-dimethylphenyl)-3-[3-(1H-indazol-5-yl)-2-oxoimidazol-1-yl]-4-methyl-6,7-dihydro-4H-pyrazolo[4,3-c]pyridine-5-carbonyl]indol-1-yl]-2-methylcyclopropyl]-4H-1,2,4-oxadiazol-5-one] it is 3 nM; for `CCc1nccc(-c2ccc3c(c2)cc(C(=O)N2CCc4nn(-c5cc(C)c(F)c(C)c5)c(-n5ccn(-c6ccc7c(cnn7C)c6)c5=O)c4C2)n3[C@@]2(c3noc(=O)[nH]3)C[C@@H]2C)c1C` [Example 2, 3-[(1S,2S)-1-[5-(2-ethyl-3-methylpyridin-4-yl)-2-[2-(4-fluoro-3,5-dimethylphenyl)-3-[3-(1-methylindazol-5-yl)-2-oxoimidazol-1-yl]-6,7-dihydro-4H-pyrazolo[4,3-c]pyridine-5-carbonyl]indol-1-yl]-2-methylcyclopropyl]-4H-1,2,4-oxadiazol-5-one] it is 5.6 nM.
The figure for `CCc1nccc(-c2ccc3c(c2)cc(C(=O)N2CCc4nn(-c5cc(C)c(F)c(C)c5)c(-n5ccn(-c6ccc7c(C)nsc7c6)c5=O)c4C2)n3[C@@]2(c3noc(=O)[nH]3)C[C@@H]2C)c1C` [Example 3] is 6.1 nM; for `CCc1nccc(-c2ccc3c(c2)cc(C(=O)N2CCc4nn(-c5cc(C)c(F)c(C)c5)c(-n5ccn(-c6ccc(OC)c(F)c6)c5=O)c4C2)n3[C@@]2(c3noc(=O)[nH]3)C[C@@H]2C)c1C` [Example 4] it is 12 nM.
The figure for `CCc1nccc(-c2ccc3c(c2)cc(C(=O)N2CCc4nn(-c5cc(C)c(F)c(C)c5)c(-n5ccn(-c6ccc7c(C)nn(C)c7c6)c5=O)c4C2)n3[C@@]2(c3noc(=O)[nH]3)C[C@@H]2C)c1C` [Example 5, 3-[(1S,2S)-1-[2-[3-[3-(1,3-dimethylindazol-6-yl)-2-oxoimidazol-1-yl]-2-(4-fluoro-3,5-dimethylphenyl)-6,7-dihydro-4H-pyrazolo[4,3-c]pyridine-5-carbonyl]-5-(2-ethyl-3-methylpyridin-4-yl)indol-1-yl]-2-methylcyclopropyl]-4H-1,2,4-oxadiazol-5-one] is 6.1 nM.
The compound `COc1nccc(-c2ccc3c(c2)cc(C(=O)N2CCc4nn(-c5cc(C)c(F)c(C)c5)c(-n5ccn(-c6ccc7c(cnn7CC(C)(C)O)c6)c5=O)c4C2)n3[C@@]2(c3noc(=O)[nH]3)C[C@@H]2C)c1C` [Example 6, 3-[(1S,2S)-1-[2-[2-(4-fluoro-3,5-dimethylphenyl)-3-[3-[1-(2-hydroxy-2-methylpropyl)indazol-5-yl]-2-oxoimidazol-1-yl]-6,7-dihydro-4H-pyrazolo[4,3-c]pyridine-5-carbonyl]-5-(2-methoxy-3-methylpyridin-4-yl)indol-1-yl]-2-methylcyclopropyl]-4H-1,2,4-oxadiazol-5-one] registered an EC50 of 2.9 nM.
The figure for `COCCn1ncc2cc(-n3ccn(-c4c5c(nn4-c4cc(C)c(F)c(C)c4)CCN(C(=O)c4cc6cc(N7CCOC(C)(C)C7)ccc6n4[C@@]4(c6noc(=O)[nH]6)C[C@@H]4C)C5)c3=O)ccc21` [Example 7, 3-[(1S,2S)-1-[5-(2,2-dimethylmorpholin-4-yl)-2-[2-(4-fluoro-3,5-dimethylphenyl)-3-[3-[1-(2-methoxyethyl)indazol-5-yl]-2-oxoimidazol-1-yl]-6,7-dihydro-4H-pyrazolo[4,3-c]pyridine-5-carbonyl]indol-1-yl]-2-methylcyclopropyl]-4H-1,2,4-oxadiazol-5-one] is 3.2 nM; for `Cc1cc(-n2nc3c(c2-n2ccn(-c4ccc5c(cnn5[C@@H]5CCOC5)c4)c2=O)CN(C(=O)c2cc4cc(C5CCOCC5)ccc4n2[C@@]2(c4noc(=O)[nH]4)C[C@@H]2C)CC3)cc(C)c1F` [Example 8, 3-[(1S,2S)-1-[2-[2-(4-fluoro-3,5-dimethylphenyl)-3-[2-oxo-3-[1-[(3R)-oxolan-3-yl]indazol-5-yl]imidazol-1-yl]-6,7-dihydro-4H-pyrazolo[4,3-c]pyridine-5-carbonyl]-5-(oxan-4-yl)indol-1-yl]-2-methylcyclopropyl]-4H-1,2,4-oxadiazol-5-one] it is 2.5 nM.
The figure for `COCCCN(C(C)=O)c1ccc(-n2ccn(-c3c4c(nn3-c3cc(C)c(F)c(C)c3)CCN(C(=O)c3cc5cc(C6CCOCC6)ccc5n3[C@@]3(c5noc(=O)[nH]5)C[C@@H]3C)C4)c2=O)cc1OC` [Example 9, N-[4-[3-[2-(4-fluoro-3,5-dimethylphenyl)-5-[1-[(1S,2S)-2-methyl-1-(5-oxo-4H-1,2,4-oxadiazol-3-yl)cyclopropyl]-5-(oxan-4-yl)indole-2-carbonyl]-6,7-dihydro-4H-pyrazolo[4,3-c]pyridin-3-yl]-2-oxoimidazol-1-yl]-2-methoxyphenyl]-N-(3-methoxypropyl)acetamide] is 1.8 nM; for `Cc1cc(-n2nc3c(c2-n2ccn(-c4ccc5c(cnn5CC(F)(F)F)c4)c2=O)CN(C(=O)c2cc4cc(C5CCOCC5)ccc4n2[C@@]2(c4noc(=O)[nH]4)C[C@@H]2C)CC3)cc(C)c1F` [Example 10, 3-[(1S,2S)-1-[2-[2-(4-fluoro-3,5-dimethylphenyl)-3-[2-oxo-3-[1-(2,2,2-trifluoroethyl)indazol-5-yl]imidazol-1-yl]-6,7-dihydro-4H-pyrazolo[4,3-c]pyridine-5-carbonyl]-5-(oxan-4-yl)indol-1-yl]-2-methylcyclopropyl]-4H-1,2,4-oxadiazol-5-one] it is 2.8 nM; for `COCCn1ncc2cc(-n3ccn(-c4c5c(nn4-c4cc(C)c(F)c(C)c4)CCN(C(=O)c4cc6cc(-c7ccnc(OC)c7C)ccc6n4[C@@]4(c6noc(=O)[nH]6)C[C@@H]4C)[C@H]5C)c3=O)ccc21` [Example 11, 3-[(1S,2S)-1-[2-[(4S)-2-(4-fluoro-3,5-dimethylphenyl)-3-[3-[1-(2-methoxyethyl)indazol-5-yl]-2-oxoimidazol-1-yl]-4-methyl-6,7-dihydro-4H-pyrazolo[4,3-c]pyridine-5-carbonyl]-5-(2-methoxy-3-methylpyridin-4-yl)indol-1-yl]-2-methylcyclopropyl]-4H-1,2,4-oxadiazol-5-one] it is 1.1 nM.
The figure for `COc1nccc(-c2ccc3c(c2)cc(C(=O)N2CCc4nn(-c5cc(C)c(F)c(C)c5)c(-n5ccn(-c6ccc7c(cnn7C)c6)c5=O)c4[C@@H]2C)n3[C@@]2(c3noc(=O)[nH]3)C[C@@H]2C)c1C` [Example 12, 3-[(1S,2S)-1-[2-[(4S)-2-(4-fluoro-3,5-dimethylphenyl)-4-methyl-3-[3-(1-methylindazol-5-yl)-2-oxoimidazol-1-yl]-6,7-dihydro-4H-pyrazolo[4,3-c]pyridine-5-carbonyl]-5-(2-methoxy-3-methylpyridin-4-yl)indol-1-yl]-2-methylcyclopropyl]-4H-1,2,4-oxadiazol-5-one] is 2.7 nM; for `COc1nccc(-c2ccc3c(c2)cc(C(=O)N2CCc4nn(-c5cc(C)c(F)c(C)c5)c(-n5ccn(-c6ccc7c(cnn7CC(C)(C)O)c6)c5=O)c4[C@@H]2C)n3[C@@]2(c3noc(=O)[nH]3)C[C@@H]2C)c1C` [Example 13, 3-[(1S,2S)-1-[2-[(4S)-2-(4-fluoro-3,5-dimethylphenyl)-3-[3-[1-(2-hydroxy-2-methylpropyl)indazol-5-yl]-2-oxoimidazol-1-yl]-4-methyl-6,7-dihydro-4H-pyrazolo[4,3-c]pyridine-5-carbonyl]-5-(2-methoxy-3-methylpyridin-4-yl)indol-1-yl]-2-methylcyclopropyl]-4H-1,2,4-oxadiazol-5-one] it is 3.7 nM.
